In ChEMBL document CHEMBL1201862, “PubChem BioAssay data set” (2004):
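These data come from cells grown in 96-well plates and exposed to compound for 48 hours at five concentrations. GI50 = concentration required for 50% inhibition of growth.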 Calls of active or inactive are those of the source. No stated cut-off is given here; in the data, active = GI50 up to about 1.1 µM and inactive = higher.

Columns and labels:
Test in all cases: NCI anticancer screen, dose series, 48 h
A498 = system: A498
BT-549 = system: BT-549
COLO 205 = system: COLO 205
Hs-578T = system: Hs-578T
KM12 = system: KM12
MDA-N = system: MDA-N
Malme-3M = system: Malme-3M
NCI-H226 = system: NCI-H226
NCI-H23 = system: NCI-H23
NCI-H460 = system: NCI-H460
NCI-H522 = system: NCI-H522
NCI/ADR-RES = system: NCI/ADR-RES
OVCAR-4 = system: OVCAR-4
OVCAR-5 = system: OVCAR-5
SF-295 = system: SF-295
SF-539 = system: SF-539
SR = system: SR
UACC-257 = system: UACC-257
A549 = system: A549
T47D = system: T47D

Compound | GI50 (A498) | GI50 (BT-549) | GI50 (COLO 205) | GI50 (Hs-578T) | GI50 (KM12) | GI50 (MDA-N) | GI50 (Malme-3M) | GI50 (NCI-H226) | GI50 (NCI-H23) | GI50 (NCI-H460) | GI50 (NCI-H522) | GI50 (NCI/ADR-RES) | GI50 (OVCAR-4) | GI50 (OVCAR-5) | GI50 (SF-295) | GI50 (SF-539) | GI50 (SR) | GI50 (UACC-257) | GI50 (A549) | GI50 (T47D)
CSC1NC(c2ccc(Cl)cc2)=C(C#N)C(=O)N1C1OCC(OC(C)=O)C(OC(C)=O)C1OC(C)=O (centres undefined) | 34.8 µM (inactive) | > 100 µM (inactive) | > 100 µM (inactive) | > 100 µM (inactive) | > 100 µM (inactive) | > 100 µM (inactive) | > 100 µM (inactive) | > 100 µM (inactive) | > 100 µM (inactive) | > 100 µM (inactive) | > 100 µM (inactive) | > 100 µM (inactive) | > 100 µM (inactive) | > 100 µM (inactive) | > 100 µM (inactive) | 67.3 µM (inactive) | 24.5 µM (inactive) | > 100 µM (inactive) | – | –
COc1c(C(=O)CC2c3c(cc4oc(C)cc(=O)c4c3OC)OC(=N)C2c2nc3ccccc3[nH]2)c(O)c(OC)c2occc12 (centres undefined) | > 100 µM (inactive) | > 100 µM (inactive) | > 100 µM (inactive) | > 100 µM (inactive) | > 100 µM (inactive) | > 100 µM (inactive) | > 100 µM (inactive) | > 100 µM (inactive) | > 100 µM (inactive) | > 100 µM (inactive) | > 100 µM (inactive) | > 100 µM (inactive) | > 100 µM (inactive) | > 100 µM (inactive) | > 100 µM (inactive) | – | – | > 100 µM (inactive) | > 100 µM (inactive) | > 100 µM (inactive)
CCOC(=O)C1=C(c2ccccc2)N(C)c2ccccc2S1 | – | 21.5 µM (inactive) | 31.3 µM (inactive) | 23.3 µM (inactive) | – | – | 40.6 µM (inactive) | 21.7 µM (inactive) | 20.1 µM (inactive) | 24.7 µM (inactive) | 25.6 µM (inactive) | 22.3 µM (inactive) | 30.1 µM (inactive) | 35.1 µM (inactive) | 35.8 µM (inactive) | 37.2 µM (inactive) | 31.6 µM (inactive) | 31.6 µM (inactive) | 35.6 µM (inactive) | 18.1 µM (inactive)
O=C(OC(=C(c1ccccc1)c1ccccc1)N1CCCC1=S)C(c1ccccc1)c1ccccc1 | 8.63 µM (inactive) | 5.05 µM (inactive) | 2.21 µM (inactive) | > 10 µM (inactive) | 4.5 µM (inactive) | – | > 10 µM (inactive) | 4.78 µM (inactive) | 4.23 µM (inactive) | 3.58 µM (inactive) | – | 5.87 µM (inactive) | 8.83 µM (inactive) | > 10 µM (inactive) | > 10 µM (inactive) | > 10 µM (inactive) | > 10 µM (inactive) | > 10 µM (inactive) | 4.67 µM (inactive) | 3.58 µM (inactive)
CN(C(=O)Cc1cc(Cl)c(Cl)cc1NC(=O)CCCN)[C@H]1CCCC[C@@H]1N1CCCC1 | 17.3 µM (inactive) | 71.9 µM (inactive) | 17.9 µM (inactive) | – | 18.7 µM (inactive) | 16.7 µM (inactive) | 17.1 µM (inactive) | 27 µM (inactive) | > 100 µM (inactive) | – | 15.8 µM (inactive) | > 100 µM (inactive) | 86.3 µM (inactive) | 37.8 µM (inactive) | 58.2 µM (inactive) | – | 34.8 µM (inactive) | 19.1 µM (inactive) | 29.5 µM (inactive) | 29.8 µM (inactive)
CCN(CC)CCO/N=C1\CC[C@H]2[C@@H]3CC=C4C[C@@H](O)CC[C@]4(C)[C@H]3CC[C@]12C | 18.5 µM (inactive) | 16.8 µM (inactive) | 12.8 µM (inactive) | 34 µM (inactive) | 17.8 µM (inactive) | 23 µM (inactive) | 16.1 µM (inactive) | 15 µM (inactive) | 16.2 µM (inactive) | 14.9 µM (inactive) | 17.3 µM (inactive) | 26.1 µM (inactive) | 25.5 µM (inactive) | 33 µM (inactive) | 19.5 µM (inactive) | 13.6 µM (inactive) | 5.31 µM (inactive) | 16.7 µM (inactive) | – | –
N=C(c1ccc2ccccc2c1)c1ccccc1Cc1ccccc1 | 82.8 µM (inactive) | 84.7 µM (inactive) | > 100 µM (inactive) | – | 25.2 µM (inactive) | 24.8 µM (inactive) | – | 28 µM (inactive) | 41.7 µM (inactive) | 33.6 µM (inactive) | – | 37.2 µM (inactive) | 34.7 µM (inactive) | 36.8 µM (inactive) | 32.2 µM (inactive) | 41.5 µM (inactive) | 19.9 µM (inactive) | 52.6 µM (inactive) | 27.7 µM (inactive) | 17.3 µM (inactive)
COc1cc(N(CCC#N)CCC#N)ccc1C(/N=N/c1ccccc1C)=N\NC(=O)c1ccc(C)cc1 | – | 98.2 µM (inactive) | 33.7 µM (inactive) | > 100 µM (inactive) | 49.1 µM (inactive) | 23.8 µM (inactive) | 34.7 µM (inactive) | > 100 µM (inactive) | 91.8 µM (inactive) | 73.5 µM (inactive) | 25.2 µM (inactive) | > 100 µM (inactive) | 59.8 µM (inactive) | > 100 µM (inactive) | > 100 µM (inactive) | – | – | 61.2 µM (inactive) | 59.6 µM (inactive) | 38.2 µM (inactive)
Nc1ccc(C(=O)Nn2c(-c3ccccc3)nc3ccccc3c2=O)cc1 | 32.3 µM (inactive) | > 100 µM (inactive) | > 100 µM (inactive) | 14.1 µM (inactive) | > 100 µM (inactive) | > 100 µM (inactive) | > 100 µM (inactive) | > 100 µM (inactive) | > 100 µM (inactive) | > 100 µM (inactive) | > 100 µM (inactive) | – | > 100 µM (inactive) | > 100 µM (inactive) | > 100 µM (inactive) | > 100 µM (inactive) | > 100 µM (inactive) | > 100 µM (inactive) | > 100 µM (inactive) | > 100 µM (inactive)
CNn1c(C)n[nH]c1=O | > 100 µM (inactive) | > 100 µM (inactive) | > 100 µM (inactive) | > 100 µM (inactive) | > 100 µM (inactive) | – | 96.8 µM (inactive) | > 100 µM (inactive) | > 100 µM (inactive) | > 100 µM (inactive) | > 100 µM (inactive) | > 100 µM (inactive) | > 100 µM (inactive) | > 100 µM (inactive) | > 100 µM (inactive) | > 100 µM (inactive) | > 100 µM (inactive) | > 100 µM (inactive) | > 100 µM (inactive) | > 100 µM (inactive)
N#Cc1c(N)nc2c(C#N)c(N)cc3c2c1Oc1ccccc1-3 | > 100 µM (inactive) | > 100 µM (inactive) | > 100 µM (inactive) | > 100 µM (inactive) | 74 µM (inactive) | > 100 µM (inactive) | > 100 µM (inactive) | > 100 µM (inactive) | > 100 µM (inactive) | > 100 µM (inactive) | – | > 100 µM (inactive) | > 100 µM (inactive) | > 100 µM (inactive) | > 100 µM (inactive) | > 100 µM (inactive) | – | > 100 µM (inactive) | > 100 µM (inactive) | > 100 µM (inactive)
COc1ccc2c(c1)CC1Cc3cc(OC)c(OC)cc3CN1CC2 (centres undefined) | 28.6 µM (inactive) | 32.6 µM (inactive) | 23.7 µM (inactive) | 53 µM (inactive) | 34.7 µM (inactive) | – | 40.2 µM (inactive) | 21.7 µM (inactive) | 46.5 µM (inactive) | 23 µM (inactive) | 34.6 µM (inactive) | 31.8 µM (inactive) | 38.5 µM (inactive) | 56 µM (inactive) | 32.7 µM (inactive) | – | 17.7 µM (inactive) | 33.8 µM (inactive) | 42.4 µM (inactive) | 23.9 µM (inactive)
C=C1CC(C#N)(C#N)[C@@H]2CC3CCCC3[C@H]12.C=C1CC(C#N)(C#N)[C@H]2C3CCCC3C[C@@H]12 (some centres undefined) | 19.7 µM (inactive) | 25.9 µM (inactive) | – | 35.9 µM (inactive) | 20.1 µM (inactive) | – | – | 25.3 µM (inactive) | 10 µM (inactive) | 10 µM (inactive) | – | 23.9 µM (inactive) | – | 10 µM (inactive) | 18.3 µM (inactive) | 19.9 µM (inactive) | 14.6 µM (inactive) | – | 10 µM (inactive) | 31.9 µM (inactive)
CCn1c(-c2ccc(C)cc2)cs/c1=N\C(P(=O)(O)O)P(=O)(O)O | > 100 µM (inactive) | > 100 µM (inactive) | > 100 µM (inactive) | > 100 µM (inactive) | > 100 µM (inactive) | > 100 µM (inactive) | > 100 µM (inactive) | > 100 µM (inactive) | > 100 µM (inactive) | > 100 µM (inactive) | > 100 µM (inactive) | > 100 µM (inactive) | – | > 100 µM (inactive) | > 100 µM (inactive) | > 100 µM (inactive) | > 100 µM (inactive) | > 100 µM (inactive) | > 100 µM (inactive) | –
CCc1nc(N)nc(N)c1-c1ccc(Cl)c(Cl)c1 [ETOPRINE] | > 100 µM (inactive) | 51.3 µM (inactive) | 8.43 µM (inactive) | 43 µM (inactive) | 8.51 µM (inactive) | – | 5.79 µM (inactive) | – | 2.74 µM (inactive) | 0.506 µM (active) | 5.81 µM (inactive) | 1.47 µM (inactive) | > 100 µM (inactive) | 7.06 µM (inactive) | 0.738 µM (active) | 5.16 µM (inactive) | 0.755 µM (active) | 8.38 µM (inactive) | 0.789 µM (active) | > 100 µM (inactive)
